Our source for the activity change, negative = cytotoxicity and IC50 values is PubChem BioAssay AID743333 (Broad Institute, 2014).

Each structure is given as a SMILES string. Activity calls are given as the source filed them.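 How the source made its calls: active means signal falls with dose and an IC50 can be fitted at or below twice the top valid tested dose; inconclusive means flat fit showing 30 to 70% loss, or poor fit; inactive means activity in the rising direction, plus the rest.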

Tested on in the first test: not listed separately
In words: A549 cell cytotoxicity, dose response, cytotoxicity control, plate reader, dry powder, set 8 (AID 743333). Conditions: A549 viability, CellTiter-Glo ATP luminescence, 72 h; at 15 µM (top of the series). (In general: ATP-based viability assays read luminescence as a measure of living cells.)
With `CN(C)CCCN(Cc1cc2ccccc2[nH]c1=O)C(=O)NCc1ccccc1`, the activity change, negative = cytotoxicity is -4.79% (inactive). On to `Cc1cnc(NC(=O)c2cc(S(=O)(=O)N3CCOCC3)ccc2N2CCCC2)s1`, for which the activity change, negative = cytotoxicity was -9.98% (inactive).

For `CN(C)S(=O)(=O)c1ccc(N2CCCC2)c(C(=O)Nc2ccccc2)c1`, the activity change, negative = cytotoxicity is -5.56% (inactive). Still for that read-out and setting: with `CN(C)S(=O)(=O)c1ccc(N2CCCC2)c(C(=O)Nc2nccs2)c1` the figure was 1.36% (inactive).

With `Cc1ccc(NC(=O)c2cc(S(=O)(=O)N(C)C)ccc2N2CCCC2)cc1`, the activity change, negative = cytotoxicity was -13.5% (inactive).

As for `Cc1cnc(NC(=O)c2cc(S(=O)(=O)N(C)C)ccc2N2CCC2)s1`, the activity change, negative = cytotoxicity is -8.88% (inactive). In the case of `CN(C)CCCN(Cc1cc2ccccc2[nH]c1=O)C(=O)Nc1ccccc1`, the activity change, negative = cytotoxicity is 2.4% (inactive). Still for that read-out and setting: with `COc1cccc2sc(NC(=O)c3cc(S(=O)(=O)N(C)C)ccc3N3CCCC3)nc12` the figure was -2.59% (inactive); with `Cc1cnc(NC(=O)c2cc(S(=O)(=O)N(C)C)ccc2N(C)C)s1`, -6.64% (inactive).

As to `Cc1csc(NC(=O)c2cc(S(=O)(=O)N(C)C)ccc2N2CCCC2)n1`, the activity change, negative = cytotoxicity is -6.7% (inactive).

Turning to `Cc1cnc(NC(=O)c2cc(S(=O)(=O)N(C)C)ccc2N2CCCC2)s1`, the activity change, negative = cytotoxicity is -12% (inactive). Turning to `CN(C)S(=O)(=O)c1ccc(N2CCCC2)c(C(=O)Nc2nc3ccccc3s2)c1`, the activity change, negative = cytotoxicity was -13.7% (inactive). Same read-out and setting: next, `Cc1cnc(NC(=O)c2cc(S(=O)(=O)N3CCCC3)ccc2N2CCCC2)s1`: 0.402% (inactive); `CN(C)S(=O)(=O)c1ccc(N2CCCC2)c(C(=O)Nc2cccc(F)c2)c1`: -8.14% (inactive).

As for `COc1ccc2sc(NC(=O)c3cc(S(=O)(=O)N(C)C)ccc3N3CCCC3)nc2c1`, the activity change, negative = cytotoxicity is 8.3% (inactive).

`Cc1cnc(NC(=O)c2cc(S(=O)(=O)N3CCCCC3)ccc2N2CCCC2)s1`: the activity change, negative = cytotoxicity was 9.07% (inactive). For `COc1ccc2nc(NC(=O)c3cc(S(=O)(=O)N(C)C)ccc3N3CCCC3)sc2c1`, the activity change, negative = cytotoxicity is -4.45% (inactive). Regarding `Cc1cnc(NC(=O)c2cc(S(=O)(=O)N(C)C)ccc2C2CCCC2)s1`, the activity change, negative = cytotoxicity was 0.274% (inactive).

For the next test, the system named is A549 viability, CellTiter-Glo ATP luminescence, 72 h. Described as above.
Details: not given
`CCN(CC)c1ccc(S(=O)(=O)N(C)C)cc1C(=O)Nc1ncc(C)s1`: the IC50 was > 30 µM (inactive).

For orientation: IC50 means the concentration at which inhibition is half-maximal.
